Measurements reported in patent US20250206761A1, “HALOINDOLE MACROCYCLIC COMPOUNDS FOR THE TREATMENT OF CANCER” (Hoffmann-La Roche Inc., priority 2022, published 2025).

Key:
[1] = system: AGS (ATCC-CRL-1739) cells; assay: Cell viability assay, G12D (AGS); assay type: cell-based, human; details: Homo sapiens, KRAS cell viability, 72 hrs, Cell Counting Kit-8
How it was run: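 Read-out is CCK-8 absorbance (OD450 minus OD650, 2 hrs after reagent), reflecting NADPH after 72 hrs of compound exposure in 0.5% DMSO. Seeding density was 5,000 cells/well for NCI-H358 and 2,000 for AGS and SW620. IC50 derived by 4-parameter sigmoidal fitting.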

[2] = system: phosphorylation of ERK, KRAS G12V in SW620; assay: pERK inhibition assay, KRAS G12V; assay type: cell-based, human; details: Homo sapiens, SW-620, SW620, 4 hours
How it was run: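 In-cell ELISA of phospho-ERK (HRP/TMB, OD450) after formaldehyde fixation and methanol permeabilization; IC50 by 4-parameter sigmoidal fit. Compound incubation 4 h, 0.5% DMSO final, on overnight-attached NCJ-H358, AGS or SW620 cells seeded at 30,000, 20,000 and 30,000 per well.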

KRAS G12C-BRAF complex = KRAS G12C-BRAF complex (Homo sapiens (Human), UniProt P01116+P62937, G12C); assay: KRAS G12C-BRAF NanoBit assay; assay type: cell-based; details: HEK293 cells, 3 hours of incubation
Sequence of KRAS G12C-BRAF complex (P01116-2 other isoform, or with tags, fused parts or gaps G12C): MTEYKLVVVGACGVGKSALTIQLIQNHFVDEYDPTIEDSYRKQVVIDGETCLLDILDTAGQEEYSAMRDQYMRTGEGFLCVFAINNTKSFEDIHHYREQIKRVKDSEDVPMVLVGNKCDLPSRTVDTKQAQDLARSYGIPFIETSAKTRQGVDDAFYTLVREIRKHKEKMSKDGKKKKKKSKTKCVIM
Sequence of KRAS G12C-BRAF complex (P62937 whole entry): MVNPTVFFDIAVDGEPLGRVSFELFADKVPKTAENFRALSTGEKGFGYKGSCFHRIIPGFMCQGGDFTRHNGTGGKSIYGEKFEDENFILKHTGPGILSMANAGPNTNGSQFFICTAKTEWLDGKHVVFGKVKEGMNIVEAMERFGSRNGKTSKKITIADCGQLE
Description: This assay is to measure the ability of tested compounds in disruption of the KRAS G12C-BRAF complex at the cellular level, we established the NanoBit cellular assay in mammalian HEK293 (ATCC) cells.
HEK293 cells were grown and maintained using DMEM medium (Thermo Fisher Scientific) with 10% fetal bovine serum and 1% penicillin/streptomycin. Both KRAS G12C and BRAF RBD were cloned into the NanoBit vectors ([…] vectors system, Promega) with the orientations SnmBit-KRAS G12C and BRAF RBD-LgBit, respectively, and co-transfected into HEK293 cells. Cells were then selected with 100 μg/mL Hygromycin B (10687010, Thermo Fisher) and Blasticidin (5 μg/mL) for 4 weeks to get the stable cell pool.
On the day of the assay, 75 nL of compound solution was presented in a 384-well assay plate as a 16-point 3-fold dilution starting from a final concentration of 30 μM in DMSO. Then cells were seeded at 10,000 cells/25 μL/well in a 384-well plate. After 3 hours of incubation, 6 μL of volume of Nano-Glo® Live Cell Substrate (Promega) was added into each well. Monitor luminescence using ultra384 model in Envision at 20 minutes. Compounds that facilitate disruption of the KRAS G12C-BRAF RBD complex were identified as those eliciting a decrease of luminescence relative to DMSO control wells.

[3] = target: KRAS G12V binding to BRAF (Homo sapiens (Human), UniProt P01116+P62937, G12V); assay: KRAS-BRAF with CYPA (500 nM) interaction assay (TR-FRET), G12V; assay type: biochemical
Sequence of KRAS G12V binding to BRAF (P01116-2 other isoform, or with tags, fused parts or gaps G12V): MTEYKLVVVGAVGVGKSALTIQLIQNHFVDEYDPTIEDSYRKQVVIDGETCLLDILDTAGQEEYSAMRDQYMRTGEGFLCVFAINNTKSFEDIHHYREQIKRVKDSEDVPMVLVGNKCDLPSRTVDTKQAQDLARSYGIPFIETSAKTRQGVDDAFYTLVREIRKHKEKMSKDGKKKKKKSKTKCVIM
Sequence of KRAS G12V binding to BRAF (P62937 whole entry): as the sequence (P62937 whole entry) above
How it was run: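 A TR-FRET assay measured how compound, in the presence of CYPA, disrupts binding of GMPPNP-loaded 6His-KRAS G12V to BRAF. The buffer contained 25 mM HEPES PH=7.4, 0.002% Tween20, 0.1% BSA, 100 mM NaCl, 5 mM MgCl2 and 10 μM GMPPNP. Compounds ran as a 16-point 3-fold dilution series from 10 μM for 3 hours.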

SMILES	IC50 [1] [nM]	IC50 [2] [nM]	IC50 (KRAS G12C-BRAF complex) [nM]	IC50 [3] [nM]
CO[C@@H](C)c1ncc(N2CCN(C)CC2)cc1-c1c2c3cc(c(F)cc3n1CC(F)(F)F)-c1cc(O)cc(c1)C[C@H](NC(=O)[C@H](C(C)C)N(C)C(=O)[C@H]1CCN(C(=O)[C@H](F)Cl)C1)C(=O)N1CCC[C@H](N1)C(=O)OCC(C)(C)C2 (atropisomer, axis not shown; (M)) [Example 8, (3S)-1-[(2R)-2-chloro-2-fluoro-acetyl]-N-[(1S)-1-[[(8S,14S)-25-fluoro-4-hydroxy-(21M)-21-[2-[(1S)-1-methoxyethyl]-5-(4-methylpiperazin-1-yl)-3-pyridyl]-18,18-dimethyl-9,15-dioxo-22-(2,2,2-trifluoroethyl)-16-oxa-10,22,28-triazapentacyclo[18.5.2.1^2,6.1^10,14.0^23,27]nonacosa-1(26),2,4,6(29),20,23(27),24-heptaen-8-yl]carbamoyl]-2-methyl-propyl]-N-methyl-pyrrolidine-3-carboxamide]	1560	127	43	10
CO[C@@H](C)c1ncc(N2CCN(C)CC2)cc1-c1c2c3cc(c(C)cc3n1CC(F)(F)F)-c1csc(n1)C[C@H](NC(=O)[C@H](C(C)C)N(C)C(=O)C1(F)CCN(C(=O)[C@H](F)Cl)CC1)C(=O)N1CCC[C@H](N1)C(=O)OCC(C)(C)C2 (atropisomer, axis not shown; (M)) [Example 9, 1-[(2R)-2-chloro-2-fluoro-acetyl]-4-fluoro-N-[(1S)-1-[[(7S,13S)-(20M)-20-[2-[(1S)-1-methoxyethyl]-5-(4-methylpiperazin-1-yl)-3-pyridyl]-17,17,24-trimethyl-8,14-dioxo-21-(2,2,2-trifluoroethyl)-15-oxa-4-thia-9,21,27,28-tetrazapentacyclo[17.5.2.1^2,5.1^9,13.0^22,26]octacosa-1(25),2,5(28),19,22(26),23-hexaen-7-yl]carbamoyl]-2-methyl-propyl]-N-methyl-piperidine-4-carboxamide]	505	22	64	> 10000
CO[C@@H](C)c1ncc(N2CCN(C)CC2)cc1-c1c2c3cc(c(F)cc3n1CC(F)(F)F)-c1csc(n1)C[C@H](NC(=O)[C@H](C(C)C)N(C)C(=O)C1(F)CCN(C(=O)[C@H](F)Cl)CC1)C(=O)N1CCC[C@H](N1)C(=O)OCC(C)(C)C2 (atropisomer, axis not shown; (M)) [Example 10, 1-[(2R)-2-chloro-2-fluoro-acetyl]-4-fluoro-N-[(1S)-1-[[(7S,13S)-24-fluoro-(20M)-20-[2-[(1S)-1-methoxyethyl]-5-(4-methylpiperazin-1-yl)-3-pyridyl]-17,17-dimethyl-8,14-dioxo-21-(2,2,2-trifluoroethyl)-15-oxa-4-thia-9,21,27,28-tetrazapentacyclo[17.5.2.1^2,5.1^9,13.0^22,26]octacosa-1(25),2,5(28),19,22(26),23-hexaen-7-yl]carbamoyl]-2-methyl-propyl]-N-methyl-piperidine-4-carboxamide]	105	6	4	136
CO[C@@H](C)c1ncc(N2CCN(C)CC2)cc1-c1c2c3cc(c(F)cc3n1CC(F)(F)F)-c1csc(n1)C[C@H](NC(=O)[C@H](C(C)C)N1CCCC3(CN(C(=O)[C@H](F)Cl)C3)C1=O)C(=O)N1CCC[C@H](N1)C(=O)OCC(C)(C)C2 (atropisomer, axis not shown; (M)) [Example 11, (2S)-2-[2-[(2R)-2-chloro-2-fluoro-acetyl]-5-oxo-2,6-diazaspiro[3.5]nonan-6-yl]-N-[(7S,13S)-24-fluoro-(20M)-20-[2-[(1S)-1-methoxyethyl]-5-(4-methylpiperazin-1-yl)-3-pyridyl]-17,17-dimethyl-8,14-dioxo-21-(2,2,2-trifluoroethyl)-15-oxa-4-thia-9,21,27,28-tetrazapentacyclo[17.5.2.1^2,5.1^9,13.0^22,26]octacosa-1(25),2,5(28),19,22(26),23-hexaen-7-yl]-3-methyl-butanamide]	1880	22	5	1030
CO[C@@H](C)c1ncc(N2CCN(C)CC2)cc1-c1c2c3c(F)c(ccc3n1CC(F)(F)F)-c1csc(n1)C[C@H](NC(=O)[C@H](C(C)C)N1CCCC3(CCN(C(=O)[C@H](F)Cl)CC3)C1=O)C(=O)N1CCC[C@H](N1)C(=O)OCC(C)(C)C2 (atropisomer, axis not shown; (M)) [Example 20, (2S)-2-[9-[(2R)-2-chloro-2-fluoro-acetyl]-1-oxo-2,9-diazaspiro[5.5]undecan-2-yl]-N-[(7S,13S)-25-fluoro-(20M)-20-[2-[(1S)-1-methoxyethyl]-5-(4-methylpiperazin-1-yl)-3-pyridyl]-17,17-dimethyl-8,14-dioxo-21-(2,2,2-trifluoroethyl)-15-oxa-4-thia-9,21,27,28-tetrazapentacyclo[17.5.2.1^2,5.1^9,13.0^22,26]octacosa-1(25),2,5(28),19,22(26),23-hexaen-7-yl]-3-methyl-butanamide]	745	73	47	1780
CCn1c(-c2cc(N3CCN(CC(F)(F)F)CC3)cnc2[C@H](C)OC)c2c3cc(c(F)cc31)-c1csc(n1)C[C@H](NC(=O)[C@H](C(C)C)N1CCC3(CN(C(=O)[C@H](F)Cl)C3)C1=O)C(=O)N1CCC[C@H](N1)C(=O)OCC(C)(C)C2 (atropisomer, axis not shown; (M)) [Example 37, (2S)-2-[2-[(2R)-2-chloro-2-fluoro-acetyl]-5-oxo-2,6-diazaspiro[3.4]octan-6-yl]-N-[(7S,13S)-21-ethyl-24-fluoro-(20M)-20-[2-[(1S)-1-methoxyethyl]-5-[4-(2,2,2-trifluoroethyl)piperazin-1-yl]-3-pyridyl]-17,17-dimethyl-8,14-dioxo-15-oxa-4-thia-9,21,27,28-tetrazapentacyclo[17.5.2.1^2,5.1^9,13.0^22,26]octacosa-1(25),2,5(28),19,22(26),23-hexaen-7-yl]-3-methyl-butanamide]	159	21		1360
CCn1c(-c2cc(N3CCN(CC(F)(F)F)CC3)cnc2[C@H](C)OC)c2c3cc(c(F)cc31)-c1csc(n1)C[C@H](NC(=O)[C@H](C(C)C)N(C)C(=O)C1(F)CCN(C(=O)[C@H](F)Cl)CC1)C(=O)N1CCC[C@H](N1)C(=O)OCC(C)(C)C2 (atropisomer, axis not shown; (M)) [Example 49, 1-[(2R)-2-chloro-2-fluoro-acetyl]-N-[(1S)-1-[[(7S,13S)-21-ethyl-24-fluoro-(20M)-20-[2-[(1S)-1-methoxyethyl]-5-[4-(2,2,2-trifluoroethyl)piperazin-1-yl]-3-pyridyl]-17,17-dimethyl-8,14-dioxo-15-oxa-4-thia-9,21,27,28-tetrazapentacyclo[17.5.2.1^2,5.1^9,13.0^22,26]octacosa-1(25),2,5(28),19,22(26),23-hexaen-7-yl]carbamoyl]-2-methyl-propyl]-4-fluoro-N-methyl-piperidine-4-carboxamide]	73	20	8	577
CCn1c(-c2cc(N3CCOCC3)cnc2[C@H](C)OC)c2c3cc(c(F)cc31)-c1csc(n1)C[C@H](NC(=O)[C@H](C(C)C)N1CC[C@]3(CCN(C(=O)[C@H](F)Cl)C3)C1=O)C(=O)N1CCC[C@H](N1)C(=O)OCC(C)(C)C2 (atropisomer, axis not shown; (M)) [Example 51, (2S)-2-[(5S)-7-[(2R)-2-chloro-2-fluoro-acetyl]-1-oxo-2,7-diazaspiro[4.4]nonan-2-yl]-N-[(7S,13S)-21-ethyl-24-fluoro-(20M)-20-[2-[(1S)-1-methoxyethyl]-5-morpholino-3-pyridyl]-17,17-dimethyl-8,14-dioxo-15-oxa-4-thia-9,21,27,28-tetrazapentacyclo[17.5.2.1^2,5.1^9,13.0^22,26]octacosa-1(25),2,5(28),19,22(26),23-hexaen-7-yl]-3-methyl-butanamide]	2500	57	34	6440
